# Patent US6737383B1, “Herbicidal oxadiazolidines” (priority 1999, dated 2004)
# How the values were obtained:
# [1] = test system: bedstraw; assay: Test B pre/postemergence bedstraw; format: in vivo, Galium aparine; details: Preemergence
# How it was run: (§1)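 Herbicidal effect was estimated by eye on a ten-point control scale after plants spent twelve to sixteen days in a greenhouse following soil or foliar treatment. Foliar sprays targeted plants at one to four leaves; all doses were formulated in a non-phytotoxic solvent with surfactant.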
# [2] = test system: blackgrass; assay: Test B pre/postemergence blackgrass; format: in vivo, Alopecurus myosuroides; details: for Plant response rating, Blackgrass: scale of 0 to 10 where 0 is no effect and 10 is complete control
# How it was run: as §1
# [3] = test system: surinam grass; assay: Test B pre/postemergence surinam grass; format: in vivo, Brachiaria decumbens; details: for Plant response rating, B. signalgrass: scale of 0 to 10 where 0 is no effect and 10 is complete control
# How it was run: as §1
# [4] = test system: cocklebur; assay: Test B pre/postemergence cocklebur; format: in vivo, Xanthium strumarium; details: for Plant response rating, Cocklebur: scale of 0 to 10 where 0 is no effect and 10 is complete control
# How it was run: as §1
# [5] = test system: corn; assay: Test B pre/postemergence corn; format: in vivo, Zea mays; details: for Plant response rating, Corn: scale of 0 to 10 where 0 is no effect and 10 is complete control
# How it was run: as §1
# [6] = test system: crabgrass; assay: Test B pre/postemergence crabgrass; format: in vivo, Digitaria sanguinalis; details: for Plant response rating, Crabgrass: scale of 0 to 10 where 0 is no effect and 10 is complete control
# How it was run: as §1
# [7] = test system: giant foxtail; assay: Test B pre/postemergence giant foxtail; format: in vivo, Setaria faberii; details: for Plant response rating, Giant foxtail: scale of 0 to 10 where 0 is no effect and 10 is complete control
# How it was run: as §1
# [8] = test system: morningglory; assay: Test B pre/postemergence morningglory; format: in vivo, Ipomoea hederacea; details: for Plant response rating, Morningglory: scale of 0 to 10 where 0 is no effect and 10 is complete control
# How it was run: as §1
# [9] = test system: pigweed; assay: Test B pre/postemergence pigweed; format: in vivo, Amaranthus retroflexus; details: for Plant response rating, Redroot pigweed: scale of 0 to 10 where 0 is no effect and 10 is complete control
# How it was run: as §1
# [10] = test system: rape; assay: Test B pre/postemergence rape; format: in vivo, Brassica napus; details: for Plant response rating, Rape: scale of 0 to 10 where 0 is no effect and 10 is complete control
# How it was run: as §1
# [11] = test system: soybean; assay: Test B pre/postemergence soybean; format: in vivo, Glycine max; details: for Plant response rating, Soybean: scale of 0 to 10 where 0 is no effect and 10 is complete control
# How it was run: as §1
# [12] = test system: sugar beet; assay: Test B pre/postemergence sugar beet; format: in vivo, Beta vulgaris; details: for Plant response rating, Sugarbeets: scale of 0 to 10 where 0 is no effect and 10 is complete control
# How it was run: as §1
# [13] = test system: velvetleaf; assay: Test B pre/postemergence velvetleaf; format: in vivo, Abutilon theophrasti; details: for Velvetleaf plant response rating: Rate 125 g/ha, scale 0 to 10, 0 is no effect, 10 is complete control; for Plant response rating, Velvetleaf: scale of 0 to 10 where 0 is no effect and 10 is complete control
# How it was run: as §1
# [14] = test system: wheat; assay: Test B pre/postemergence wheat; format: in vivo, Triticum aestivum; details: for Plant response rating, Wheat: scale of 0 to 10 where 0 is no effect and 10 is complete control
# How it was run: as §1
# [15] = test system: wild oat; assay: Test B pre/postemergence wild oat; format: in vivo, Avena fatua; details: for Plant response rating, Wild oats: scale of 0 to 10 where 0 is no effect and 10 is complete control
# How it was run: as §1
# [16] = test system: purple nutsedge; assay: Test B pre/postemergence purple nutsedge; format: in vivo, Cyperus rotundus
# How it was run: as §1
# [17] = Postemergence, Rate 31 g/ha, visual rating, scale 0 to 10 (0 no effect, 10 complete control)
# [18] = Postemergence, Rate 62 g/ha, scale of 0 to 10, 0 is no effect, 10 is complete control
# [19] = Postemergence, Rate 125 g/ha, scale 0 to 10, 0 is no effect, 10 is complete control
# [20] = Preemergence, Rate 31 g/ha, visual rating, scale 0 to 10 (0 no effect, 10 complete control)
# [21] = Preemergence, Rate 125 g/ha, scale 0 to 10, 0 is no effect, 10 is complete control
compound,measurement,setting,value
CC(C)N(C(=O)n1oc(=O)n(C[Si](C)(C)C)c1=O)c1ccc(F)cc1F [Compound 518],Bedstraw plant response rating,"[1]; Rate 31 g/ha, visual rating, scale 0 to 10 (0 no effect, 10 complete control)",0
same,"Plant response rating, Bedstraw","[1]; Rate 62 g/ha, scale of 0 to 10 where 0 is no effect and 10 is complete control",0
same,Bedstraw plant response rating,"[1]; Rate 125 g/ha, scale 0 to 10, 0 is no effect, 10 is complete control",0
same,Bedstraw plant response rating (0 to 10 scale),[1]; Rate 250 g/ha,0
same,Blackgrass plant response rating,[2]; [17],4
same,Blackgrass plant response rating,[2]; [18],4
same,Blackgrass plant response rating,[2]; [19],7
same,Blackgrass plant response rating,[2]; [20],4
same,"Plant response rating, Blackgrass","[2]; Preemergence, Rate 62 g/ha",7
same,Blackgrass plant response rating,[2]; [21],8
same,Blackgrass plant response rating (0 to 10 scale),"[2]; Preemergence, Rate 250 g/ha",7
same,"Plant response rating, Blackgrass","[2]; Rate 250 g/ha, Postemergence",7
same,B. signalgrass plant response rating,[3]; [17],3
same,B. signalgrass plant response rating,[3]; [19],7
same,B. signalgrass plant response rating,[3]; [20],0
same,"Plant response rating, B. signalgrass","[3]; Preemergence, Rate 62 g/ha",0
same,B. signalgrass plant response rating,[3]; [21],3
same,"B. signalgrass plant response rating (0 to 10 scale, 0 is no effect, 10 is complete control)","[3]; Preemergence, Rate 250 g/ha",10
same,"Plant response rating, B. signalgrass","[3]; Rate 250 g/ha, Postemergence",7
same,Cocklebur plant response rating,[4]; [17],0
same,Cocklebur plant response rating,[4]; [18],0
same,Cocklebur plant response rating,[4]; [19],0
same,Cocklebur plant response rating,[4]; [20],0
same,"Plant response rating, Cocklebur","[4]; Preemergence, Rate 62 g/ha",0
same,Cocklebur plant response rating,[4]; [21],0
same,Cocklebur plant response rating (0 to 10 scale),"[4]; Preemergence, Rate 250 g/ha",0
same,"Plant response rating, Cocklebur","[4]; Rate 250 g/ha, Postemergence",0
same,Corn plant response rating,[5]; [17],0
same,Corn plant response rating,[5]; [18],0
same,Corn plant response rating,[5]; [19],0
same,Corn plant response rating,[5]; [20],0
same,"Plant response rating, Corn","[5]; Preemergence, Rate 62 g/ha",0
same,Corn plant response rating,[5]; [21],0
same,Corn plant response rating (0 to 10 scale),"[5]; Preemergence, Rate 250 g/ha",0
same,"Plant response rating, Corn","[5]; Rate 250 g/ha, Postemergence",0
same,Crabgrass plant response rating,[6]; [17],0
same,Crabgrass plant response rating,[6]; [18],0
same,Crabgrass plant response rating,[6]; [19],2
same,Crabgrass plant response rating,[6]; [20],0
same,"Plant response rating, Crabgrass","[6]; Preemergence, Rate 62 g/ha",0
same,Crabgrass plant response rating,[6]; [21],0
same,Crabgrass plant response rating (0 to 10 scale),"[6]; Preemergence, Rate 250 g/ha",0
same,"Plant response rating, Crabgrass","[6]; Rate 250 g/ha, Postemergence",10
same,Giant foxtail plant response rating,[7]; [17],0
same,Giant foxtail plant response rating,[7]; [18],0
same,Giant foxtail plant response rating,[7]; [19],0
same,Giant foxtail plant response rating,[7]; [20],0
same,"Plant response rating, Giant foxtail","[7]; Preemergence, Rate 62 g/ha",0
same,Giant foxtail plant response rating,[7]; [21],0
same,Giant foxtail plant response rating (0 to 10 scale),"[7]; Preemergence, Rate 250 g/ha",0
same,"Plant response rating, Giant foxtail","[7]; Rate 250 g/ha, Postemergence",2
same,Morningglory plant response rating,[8]; [17],5
same,Morningglory plant response rating,[8]; [18],5
same,Morningglory plant response rating,[8]; [19],5
same,"Plant response rating, Morningglory","[8]; Preemergence, Rate 62 g/ha",0
same,Morningglory plant response rating,[8]; [21],0
same,Morningglory plant response rating (0 to 10 scale),"[8]; Preemergence, Rate 250 g/ha",0
same,"Plant response rating, Morningglory","[8]; Rate 250 g/ha, Postemergence",8
same,Redroot pigweed plant response rating,[9]; [17],0
same,Redroot pigweed plant response rating,[9]; [18],0
same,Redroot pigweed plant response rating,[9]; [19],0
same,"Plant response rating, Redroot pigweed","[9]; Preemergence, Rate 62 g/ha",2
same,Redroot pigweed plant response rating,[9]; [21],2
same,Redroot pigweed plant response rating (0 to 10 scale),"[9]; Preemergence, Rate 250 g/ha",4
same,"Plant response rating, Redroot pigweed","[9]; Rate 250 g/ha, Postemergence",0
same,Rape plant response rating,[10]; [17],0
same,Rape plant response rating,[10]; [18],0
same,Rape plant response rating,[10]; [19],7
same,"Plant response rating, Rape","[10]; Preemergence, Rate 62 g/ha",0
same,Rape plant response rating,[10]; [21],0
same,Rape plant response rating (0 to 10 scale),"[10]; Preemergence, Rate 250 g/ha",0
same,"Plant response rating, Rape","[10]; Rate 250 g/ha, Postemergence",7
same,Soybean plant response rating,[11]; [17],4
same,Soybean plant response rating,[11]; [18],4
same,Soybean plant response rating,[11]; [19],5
same,"Plant response rating, Soybean","[11]; Preemergence, Rate 62 g/ha",0
same,Soybean plant response rating,[11]; [21],0
same,Soybean plant response rating (0 to 10 scale),"[11]; Preemergence, Rate 250 g/ha",0
same,"Plant response rating, Soybean","[11]; Rate 250 g/ha, Postemergence",5
same,Sugarbeets plant response rating,[12]; [17],0
same,Sugarbeets plant response rating,[12]; [18],0
same,Sugarbeets plant response rating,[12]; [19],3
same,"Plant response rating, Sugarbeets","[12]; Preemergence, Rate 62 g/ha",0
same,Sugarbeets plant response rating,[12]; [21],2
same,Sugarbeets plant response rating (0 to 10 scale),"[12]; Preemergence, Rate 250 g/ha",2
same,"Plant response rating, Sugarbeets","[12]; Rate 250 g/ha, Postemergence",3
same,Velvetleaf plant response rating,[13]; Postemergence,2
same,"Plant response rating, Velvetleaf","[13]; Preemergence, Rate 62 g/ha",0
same,Velvetleaf plant response rating,[13]; Preemergence,0
same,Velvetleaf plant response rating (0 to 10 scale),"[13]; Preemergence, Rate 250 g/ha",0
same,"Plant response rating, Velvetleaf","[13]; Rate 250 g/ha, Postemergence",4
same,Wheat plant response rating,[14]; [17],0
same,Wheat plant response rating,[14]; [18],0
same,Wheat plant response rating,[14]; [19],0
same,"Plant response rating, Wheat","[14]; Preemergence, Rate 62 g/ha",0
same,Wheat plant response rating,[14]; [21],2
same,Wheat plant response rating (0 to 10 scale),"[14]; Preemergence, Rate 250 g/ha",3
same,"Plant response rating, Wheat","[14]; Rate 250 g/ha, Postemergence",0
same,Wild oats plant response rating,[15]; [17],0
same,Wild oats plant response rating,[15]; [18],0
same,Wild oats plant response rating,[15]; [19],2
same,"Plant response rating, Wild oats","[15]; Preemergence, Rate 62 g/ha",4
same,Wild oats plant response rating,[15]; [21],6
same,Wild oats plant response rating (0 to 10 scale),"[15]; Preemergence, Rate 250 g/ha",8
same,"Plant response rating, Wild oats","[15]; Rate 250 g/ha, Postemergence",2
same,Nutsedge plant response rating,[16]; [17],0
same,Nutsedge plant response rating,[16]; [18],0
same,Nutsedge plant response rating,[16]; [19],0
same,"Plant response rating, Nutsedge","[16]; Preemergence, Rate 62 g/ha, scale of 0 to 10 where 0 is no effect and 10 is complete control",0
same,Nutsedge plant response rating,[16]; [21],0
same,Nutsedge plant response rating (0 to 10 scale),"[16]; Preemergence, Rate 250 g/ha",0
